# Laboratory results from paper PMC8378823, “X-ray free-electron laser studies reveal correlated motion during isopenicillin N synthase catalysis” (Science Advances, 2021).
# Target: T1, isopenicillin N synthase (IPNS) (Aspergillus nidulans, UniProt P05326)
# T1 construct: gene ipnA; recombinant wild type (pJB703) from E. coli NM554; S55C form from pCOLD I, N-terminal His6 tag cut with 3C protease, 37,768 Da
# T1 sequence (P05326 1-331): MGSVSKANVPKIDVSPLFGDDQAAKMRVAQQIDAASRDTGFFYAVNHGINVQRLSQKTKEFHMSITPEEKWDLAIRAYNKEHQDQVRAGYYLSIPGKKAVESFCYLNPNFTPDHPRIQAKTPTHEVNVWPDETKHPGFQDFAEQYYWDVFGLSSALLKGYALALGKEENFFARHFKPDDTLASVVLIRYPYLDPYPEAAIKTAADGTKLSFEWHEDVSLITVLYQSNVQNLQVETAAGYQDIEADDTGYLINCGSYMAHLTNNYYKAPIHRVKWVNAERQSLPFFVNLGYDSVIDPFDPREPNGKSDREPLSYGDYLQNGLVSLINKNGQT
# Assay: SFX and cryo synchrotron crystal structure
# Format: binding
# Settings: Fe complex; formed in crystallo from ACV by about 30 min O2 exposure; SFX 1.60 Å at room temperature
smiles,measurement,value
CC1(C)S[C@@H]2[C@H](NC(=O)CCC[C@H](N)C(=O)O)C(=O)N2[C@H]1C(=O)O [isopenicillin N],SFX and cryo synchrotron crystal structure,Composite SFX 2mFo-DFc omit map for IPNS:Fe:IPN obtained by ~30-min O2 exposure
